Here are results for 1 molecule from US11066481B2, “Antibodies to coagulation factor XIa and uses thereof” (THE REGENTS OF THE UNIVERSITY OF CALIFORNIA, priority 2015, dated 2021).

Data set [1] relates to rabbit model of venous thromboembolism (VTE). Briefly: rabbit model of venous thromboembolism (VTE). It is filed as in vivo. An excerpt:
All procedures performed on these animals were in accordance with regulations and established guidelines and were reviewed and approved by an Institutional Animal Care and Use Committee or through an ethical review process. Rabbits were anesthetized according to established protocols. […] Furthermore, for the Rivaroxaban treated animals, the i.v. bolus injection was supplemented by a continuous i.v. infusion of Rivaroxaban to maintain proper dosing throughout the duration of the study due to short half-life concerns. For all treatment groups, 30 minutes after bolus injection, a sheath of the appropriate size was placed in the left femoral vein. Then a wire of approximately 14 cm with 8 strands of cotton thread attached to it (each 3 cm long) was inserted into the femoral vein. Fluoroscopy was used for guidance of the wire with the threads towards the target area in the vena cava. […] After 90 minutes the device was removed by surgical dissection, cut from the wire, and the clot-containing cotton threads were weighed after having been blotted dry. Prior to IgG dosing, and also prior to surgical removal of threads, a blood sample was drawn for preparation of serum (PK) and plasma (for PD biomarkers APTT and PT).

Another data set has as its system rabbit cuticle bleeding. Briefly: rabbit cuticle bleeding study. Type of data set: in vivo. Conditions: 1.5 mg/kg i.v. bolus plus infusion. On the procedure: All procedures performed on these animals were in accordance with regulations and established guidelines and were reviewed and approved by an Institutional Animal Care and Use Committee or through an ethical review process. Rabbits were anesthetized according to established protocols. After anesthesia and cannulation etc., both front paws were shaved to remove fur that would otherwise contaminate saline and wick it out of the tube. Pre dosing bleeds were performed on the middle digit of the left front paw. Post dosing bleeds were performed on the same digit on the right front paw. There were four dosing groups of 10 animals each. […] Furthermore, for the Rivaroxaban treated animals, the i.v. bolus injection was supplemented by a continuous i.v. infusion of Rivaroxaban to maintain proper dosing throughout the duration of the study due to short half-life concerns. Nails were transilluminated with white light to visualize the quick and cut with a razor blade so as to transect the cuticle approximately 1 mm proximal to the apex of the quick. The nail was then immediately immersed in a saline solution in 10×75 mm 3 ml polystyrene (clear) tube. The tube with saline was stored at 37° C. before the cut. The nail was kept in the solution and time to cessation of flow was measured. […] At the end of the blood collection the tube is capped and inverted 5 times and centrifuged at 200 to 250×g for 15 min. The blood cell pellet was resuspended in 3 mL erythrocyte lysis buffer (8.3 g/L NH4Cl, 1.0 g/LKHCO3, and 0.037 g/L EDTA in water). After at least 15 min of lysis time, hemoglobin (Hb) concentration was measured at OD 575 nm using a Spectrophotometer) and expressed as arbitrary absorbance units. As indicated above, baseline cuticle bleeding times were performed prior to dosing. […] 30 minutes later a second cuticle cut was made and bleeding times recorded and blood loss measured. […]

[2] abbreviates: 1.5 mg/kg i.v. bolus plus continuous infusion.

Turning to `O=C(NC[C@H]1CN(c2ccc(N3CCOCC3=O)cc2)C(=O)O1)c1ccc(Cl)s1` [Rivaroxaban], the “any read outs measured (thrombus weight, APTT, PT)” value in data set [1] (0.045 mg/kg i.v. bolus plus continuous infusion) is recorded as “No effects”. In addition, in data set [1] (setting [2]), the thrombus/clot weight result is “decreased thrombus/clot weight”, the “time to clotting in APTT assay” value is listed as “prolonged time to clotting” and the “time to clotting in PT assay” value is given as “prolonged time to clotting”. In the data set on rabbit cuticle bleeding, the “time to clotting in APTT coagulation assay” value is “significant prolongation in time to clotting”, the “time to clotting in PT coagulation assay” value is reported as “significant prolongation in time to clotting” and the “total blood loss following cuticle cutting” value is on record as “significantly increased total blood loss”.
